Test results from ChEMBL document CHEMBL5380816, “Inclusion of Nitrofurantoin into the Realm of Cancer Chemotherapy via Biology-Oriented Synthesis and Drug Repurposing” (J Med Chem, 2023).
Active and inactive are the calls of the source. The rule behind the calls is not given here.

Tests used:
Caco-2 [1] = experiment: Induction of apoptosis in human Caco-2 cells assessed as increase in Bax expression level relative to nitrofurantoin; type: functional
HeLa [2] = experiment: Induction of apoptosis in human HeLa cells assessed as decrease in Bcl-2 expression level incubated for 72 hrs relative to nitrofurantoin; type: functional; parameters: scale not given: the % may be the effect or the level left
Caco-2 [3] = experiment: Induction of apoptosis in human Caco-2 cells assessed as ratio of gene expression activity in pro apoptotic Bax to anti apoptotic Bcl-2; type: functional
HepG2 [4] = experiment: Induction of apoptosis in human HepG2 cells assessed as increase in Bax expression level relative to 5-fluorouracil; type: functional
Caco-2 [5] = experiment: Induction of apoptosis in human Caco-2 cells assessed as increase in Bax expression level relative to 5-fluorouracil; type: functional
HepG2 [6] = experiment: Induction of apoptosis in human HepG2 cells assessed as ratio of gene expression activity in pro apoptotic Bax to anti apoptotic Bcl-2; type: functional
[7] = Selectivity index, ratio of IC50 for human WI-38 cells to IC50 for human HeLa cells; type: toxicity; conditions: WI-38 cells versus HeLa cells, read-out: Ratio IC50
HepG2 [8] = experiment: Induction of apoptosis in human HepG2 cells assessed as increase in Bax expression level relative to nitrofurantoin; type: functional
HeLa [9] = experiment: Induction of apoptosis in human HeLa cells assessed as increase in Bax expression level relative to 5-fluorouracil; type: functional
MCF7 [10] = experiment: Anticancer activity against human MCF7 cells incubated for 72 hrs by MTT assay; type: functional, cell-based; conditions: MCF7, 72 h
MCF7 [11] = experiment: Induction of apoptosis in human MCF7 cells assessed as increase in Bax expression level relative to nitrofurantoin; type: functional
[12] = Selectivity index, ratio of IC50 for human WI-38 cells to IC50 for human MCF7 cells; type: toxicity; conditions: WI-38 cells versus MCF7 cells, read-out: Ratio IC50
MCF7 [13] = experiment: Induction of apoptosis in human MCF7 cells assessed as increase in Bax expression level relative to 5-fluorouracil; type: functional
HepG2 [14] = experiment: Anticancer activity against human HepG2 cells assessed as smaller cells incubated at 0.098uM for 72 hrs by phase contrast inverted microscopic analysis; type: functional, cell-based
[15] = Cytotoxicity in human WI-38 cells assessed as safe dose incubated for 72 hrs by MTT assay; type: toxicity, cell-based; conditions: read-out: EC100
Caco-2 [16] = experiment: Induction of apoptosis in human Caco-2 cells assessed as decrease in Bcl-2 expression level incubated for 72 hrs relative to nitrofurantoin; type: functional; parameters: scale not given: the % may be the effect or the level left
[17] = Selectivity index, ratio of IC50 for human WI-38 cells to IC50 for human Caco-2 cells
HepG2 [18] = experiment: Potency index, ratio of 5-fluorouracil IC50 to test compound IC50 for antiproliferative activity against human HepG2 cells; type: functional
HepG2 [19] = experiment: Induction of apoptosis in human HepG2 cells assessed as decrease in Bcl-2 expression level incubated for 72 hrs relative to nitrofurantoin; type: functional; parameters: scale not given: the % may be the effect or the level left
MCF7 [20] = experiment: Induction of apoptosis in human MCF7 cells assessed as decrease in Bcl-2 expression level incubated for 72 hrs relative to 5-fluorouracil; type: functional; parameters: scale not given: the % may be the effect or the level left
HeLa [21] = experiment: Induction of apoptosis in human HeLa cells assessed as increase in Bax expression level relative to nitrofurantoin; type: functional
HeLa [22] = experiment: Anticancer activity against human HeLa cells incubated for 72 hrs by MTT assay; type: functional, cell-based
[23] = Cytotoxicity in human WI-38 cells assessed as reduction in cell viability incubated for 72 hrs by MTT assay; type: toxicity, cell-based
HeLa [24] = experiment: Induction of apoptosis in human HeLa cells assessed as decrease in Bcl-2 expression level incubated for 72 hrs relative to 5-fluorouracil; type: functional; parameters: scale not given: the % may be the effect or the level left
MCF7 [25] = experiment: Potency index, ratio of 5-fluorouracil IC50 to test compound IC50 for antiproliferative activity against human MCF7 cells; type: functional
[26] = target: T1, Tumour suppressor p53/oncoprotein Mdm2 (Homo sapiens, UniProt P04637+Q00987); experiment: Inhibition of human recombinant MDM2/p53 interaction measured after 10 mins by ELISA method; type: protein assay
Target sequence in this assay (P04637 whole entry): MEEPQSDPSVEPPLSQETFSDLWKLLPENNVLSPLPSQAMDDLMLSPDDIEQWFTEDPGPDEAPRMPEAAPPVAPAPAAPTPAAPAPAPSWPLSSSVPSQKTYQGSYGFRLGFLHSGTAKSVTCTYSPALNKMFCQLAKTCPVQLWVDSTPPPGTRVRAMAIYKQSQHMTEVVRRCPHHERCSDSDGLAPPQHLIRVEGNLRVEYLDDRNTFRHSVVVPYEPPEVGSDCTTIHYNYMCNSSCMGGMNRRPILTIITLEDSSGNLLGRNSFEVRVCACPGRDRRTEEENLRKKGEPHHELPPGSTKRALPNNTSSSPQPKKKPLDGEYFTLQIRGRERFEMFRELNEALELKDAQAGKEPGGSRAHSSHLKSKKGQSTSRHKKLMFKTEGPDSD
Target sequence in this assay (Q00987 whole entry): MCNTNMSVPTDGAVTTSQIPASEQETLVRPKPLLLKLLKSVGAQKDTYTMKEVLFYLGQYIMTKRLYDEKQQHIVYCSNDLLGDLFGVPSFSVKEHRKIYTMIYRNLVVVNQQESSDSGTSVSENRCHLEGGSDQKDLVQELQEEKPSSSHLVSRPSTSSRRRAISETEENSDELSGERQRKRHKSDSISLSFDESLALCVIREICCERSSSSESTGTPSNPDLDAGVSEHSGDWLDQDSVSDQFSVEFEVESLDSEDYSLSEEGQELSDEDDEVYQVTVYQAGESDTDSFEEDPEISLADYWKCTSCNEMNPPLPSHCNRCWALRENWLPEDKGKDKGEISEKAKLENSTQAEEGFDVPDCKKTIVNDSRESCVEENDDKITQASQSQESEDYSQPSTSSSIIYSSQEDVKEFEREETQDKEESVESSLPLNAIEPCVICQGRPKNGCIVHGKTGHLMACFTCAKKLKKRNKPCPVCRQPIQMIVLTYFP

HepG2 [27] = experiment: Induction of apoptosis in human HepG2 cells assessed as decrease in Bcl-2 expression level incubated for 72 hrs relative to 5-fluorouracil; type: functional; parameters: scale not given: the % may be the effect or the level left
[28] = target: T1, Tumour suppressor p53/oncoprotein Mdm2; experiment: Potency index, ratio of nitrofurantoin IC50 to compound IC50 for inhibition of human recombinant MDM2/p53 interaction; type: protein assay
Target sequence in this assay (P04637 whole entry, looked up): as the sequence (P04637 whole entry) above
Target sequence in this assay (Q00987 whole entry, looked up): as the sequence (Q00987 whole entry) above

HeLa [29] = experiment: Induction of apoptosis in human HeLa cells assessed as increase in Bax expression level relative to control; type: functional
HeLa [30] = experiment: Induction of apoptosis in human HeLa cells assessed as ratio of gene expression activity in pro apoptotic Bax to anti apoptotic Bcl-2; type: functional
HepG2 [31] = experiment: Anticancer activity against human HepG2 cells incubated for 72 hrs by MTT assay; type: functional, cell-based; conditions: HepG2, 72 h
MCF7 [32] = experiment: Induction of apoptosis in human MCF7 cells assessed as ratio of gene expression activity in pro apoptotic Bax to anti apoptotic Bcl-2; type: functional
MCF7 [33] = experiment: Induction of apoptosis in human MCF7 cells assessed as decrease in Bcl-2 expression level incubated for 72 hrs relative to nitrofurantoin; type: functional; parameters: scale not given: the % may be the effect or the level left
Caco-2 [34] = experiment: Induction of apoptosis in human Caco-2 cells assessed as decrease in Bcl-2 expression level incubated for 72 hrs relative to 5-fluorouracil; type: functional; parameters: scale not given: the % may be the effect or the level left
Caco-2 [35] = experiment: Anticancer activity against human Caco-2 cells incubated for 72 hrs by MTT assay; type: functional, cell-based; conditions: Caco-2, 72 h
HepG2 [36] = experiment: Induction of apoptosis in human HepG2 cells assessed as increase in Bax expression level relative to control; type: functional
[37] = Selectivity index, ratio of IC50 for human WI-38 cells to IC50 for human HepG2 cells; type: toxicity; conditions: WI-38 cells versus HepG2 cells, read-out: Ratio IC50
MCF7 [38] = experiment: Antitumor activity against human MCF7 cells xenografted in immunocompromised BALB/c mouse model assessed as decrease in tumor maas administered at 50 mg/kg, ip for 21 days relative to control; type: functional; parameters: scale not given: the % may be the effect or the level left; conditions: time 21 day
MCF7 [39] = experiment: Induction of oxidative stress in human MCF7 cells assessed as cell death by measuring redox alteration fluorescence incubated at 0.098 uM for 72 hrs in presence of dihydro dichlorofluorescein diacetate by DCFH-DA based flow cytometric analysis relative to control; type: functional
MCF7 [40] = experiment: Antitumor activity against human MCF7 cells xenografted in immunocompromised BALB/c mouse model assessed as tumor size reduction administered at 50 mg/kg, ip for 21 days; type: functional, organism-based; conditions: time 21.0 day
Caco-2 [41] = experiment: Induction of apoptosis in human Caco-2 cells assessed as necrotic cells incubated at 0.017 uM for 72 hrs by annexin V-FITC based propidium iodide dual staining assay (reference value: 0.02%); type: functional
HepG2 [42] = experiment: Induction of apoptosis in human HepG2 cells assessed as late apoptotic cells incubated at 0.017 uM for 72 hrs by annexin V-FITC based propidium iodide dual staining assay (reference value: 0.66%); type: functional
HeLa [43] = experiment: Induction of apoptosis in human HeLa cells assessed as caspase3/7 activation at 0.097 uM using caspase-glo 3/7 as substrate relative to control; type: functional
HeLa [44] = experiment: Induction of apoptosis in human HeLa cells assessed as late apoptotic cells by measuring orange to red patch incubated at 0.097 uM for 72 hrs by acridine orange-ethidium bromide dual staining based fluorescence microscopic analysis; type: functional, cell-based

O=C(CN1C(=O)CN(/N=C/c2ccc([N+](=O)[O-])o2)C1=O)c1ccc(Cl)cc1
Activity (Caco-2 [1]): 70%
Activity (HeLa [2]): 30%
Ratio (Caco-2 [3]): 3.396
Activity (HepG2 [4]): 70%
Activity (Caco-2 [5]): 70%
Ratio (HepG2 [6]): 4.215
selectivity ratio [7]: 4.04
Activity (HepG2 [8]): 70%
Activity (HeLa [9]): 70%
IC50 (MCF7 [10]): 117 nM
Activity (MCF7 [11]): 70%
selectivity ratio [12]: 2.14
Activity (MCF7 [13]): 70%
Activity (HepG2 [14]): Active
MNTC at 72 h [15]: 98 nM
Activity (Caco-2 [16]): 30%
Ratio IC50 [17]: 1.87
Ratio IC50 (HepG2 [18]): 1.6
Activity (HepG2 [19]): 30%
Activity (MCF7 [20]): 30%
Activity (HeLa [21]): 70%
IC50 (HeLa [22]): 62 nM
IC50 at 72 h [23]: 251 nM
Activity (HeLa [24]): 30%
Ratio IC50 (MCF7 [25]): 1.2
IC50 [26]: 670 nM
Activity (HepG2 [27]): 30%
Ratio IC50 [28]: 2.4
Activity (HeLa [29]): 300%
Ratio (HeLa [30]): 11.09
IC50 (HepG2 [31]): 110 nM
Ratio (MCF7 [32]): 5.104
Activity (MCF7 [33]): 30%
Activity (Caco-2 [34]): 30%
IC50 (Caco-2 [35]): 134 nM
Activity (HepG2 [36]): 300%
selectivity ratio [37]: 2.29

O=c1[nH]cc(F)c(=O)[nH]1 [FLUOROURACIL]
Ratio (Caco-2 [3]): 1.187
Ratio (HepG2 [6]): 1.247
selectivity ratio [7]: 1.02
Activity (MCF7 [38]): ~65%
IC50 (MCF7 [10]): 235 nM
selectivity ratio [12]: 0.865
Activity (MCF7 [39]): 4.24%
MNTC at 72 h [15]: 17 nM
Ratio IC50 [17]: 0.76
IC50 (HeLa [22]): 199 nM
IC50 at 72 h [23]: 192 nM
Ratio (HeLa [30]): 1.257
IC50 (HepG2 [31]): 178 nM
Ratio (MCF7 [32]): 1.246
Activity (MCF7 [40]): Active
IC50 (Caco-2 [35]): 266 nM
Activity (Caco-2 [41]): 0.97%
selectivity ratio [37]: 1.13
Activity (HepG2 [42]): 2.34%

C#CCN1C(=O)CN(/N=C/c2ccc([N+](=O)[O-])o2)C1=O
Activity (Caco-2 [1]): 70%
Activity (HeLa [2]): 30%
Ratio (Caco-2 [3]): 5.278
Activity (HepG2 [4]): 70%
Activity (Caco-2 [5]): 70%
Ratio (HepG2 [6]): 11.74
selectivity ratio [7]: 1.16
Activity (HepG2 [8]): 70%
Activity (HeLa [9]): 70%
Activity (MCF7 [38]): ~65%
IC50 (MCF7 [10]): 111 nM
Activity (MCF7 [11]): 70%
selectivity ratio [12]: 2.79
Activity (MCF7 [13]): 70%
MNTC at 72 h [15]: 110 nM
Activity (Caco-2 [16]): 30%
Ratio IC50 [17]: 3.13
Ratio IC50 (HepG2 [18]): 1.2
Activity (HepG2 [19]): 30%
Activity (MCF7 [20]): 30%
Activity (HeLa [21]): 70%
IC50 (HeLa [22]): 265 nM
IC50 at 72 h [23]: 306 nM
Activity (HeLa [24]): 30%
Ratio IC50 (MCF7 [25]): 1.2
IC50 [26]: 590 nM
Activity (HepG2 [27]): 30%
Ratio IC50 [28]: 2.7
Activity (HeLa [29]): 300%
Ratio (HeLa [30]): 3.004
IC50 (HepG2 [31]): 89 nM
Ratio (MCF7 [32]): 4.453
Activity (MCF7 [33]): 30%
Activity (MCF7 [40]): Active
Activity (Caco-2 [34]): 30%
IC50 (Caco-2 [35]): 99 nM
Activity (HepG2 [36]): 300%
selectivity ratio [37]: 3.46

NS(=O)(=O)c1ccc(-n2cc(CN3C(=O)CN(/N=C/c4ccc([N+](=O)[O-])o4)C3=O)nn2)cc1
Activity (Caco-2 [1]): 70%
Activity (HeLa [2]): 30%
Ratio (Caco-2 [3]): 7.328
Activity (HepG2 [4]): 70%
Activity (Caco-2 [5]): 70%
Ratio (HepG2 [6]): 2.326
Activity (HeLa [43]): 58%
selectivity ratio [7]: 3.08
Activity (HepG2 [8]): 70%
Activity (HeLa [9]): 70%
IC50 (MCF7 [10]): 74 nM
Activity (MCF7 [11]): 70%
selectivity ratio [12]: 3.36
Activity (MCF7 [13]): 70%
MNTC at 72 h [15]: 97 nM
Activity (Caco-2 [16]): 30%
Ratio IC50 [17]: 3.14
Activity (HeLa [44]): Active
Activity (HepG2 [19]): 30%
Activity (MCF7 [20]): 30%
Activity (HeLa [21]): 70%
IC50 (HeLa [22]): 81 nM
IC50 at 72 h [23]: 249 nM
Activity (HeLa [24]): 30%
Ratio IC50 (MCF7 [25]): 1.2
IC50 [26]: 410 nM
Activity (HepG2 [27]): 30%
Ratio IC50 [28]: 3.6
Ratio (HeLa [30]): 6.36
IC50 (HepG2 [31]): 309 nM
Ratio (MCF7 [32]): 10.4
Activity (MCF7 [33]): 30%
Activity (Caco-2 [34]): 30%
IC50 (Caco-2 [35]): 80 nM
selectivity ratio [37]: 0.807
